Key:
[1] = NO free radical scavenging assay (sodium nitroprusside/Griess); conditions: mean ± SD; sodium nitroprusside, Griess reagent, 550 nm
Summary of the method: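 Test compound incubated with 10 mM sodium nitroprusside (stock) in phosphate buffer for 2.5 h at 25 °C, then Griess reagent added for 30 min. Triplicate absorbance means used for IC50 by nonlinear dose–response regression.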

[2] = test system: NO generated from nitric oxide synthase (NOS); assay: Inhibitory activity against NO generated from NOS (EnzyChrom kit); format: biochemical; conditions: mean ± SD, 1-50 µM
Experimental: A nitric oxide synthase (NOS) assay was performed following the procedure recommended by the manufacturer as outlined in the screening kit (Catalogue No. EINO-100; EnzyChrom). Various concentrations (1, 5, 10, 25 and 50 µM) of the compounds 3a, 3c, 3f, 3i, 3l, 3n and 3p and the reference standard, ascorbic acid, were prepared. The enzyme solution (12.5 U/mL NOS, 10 µL), assay buffer (25 µL) and test samples (5 µL) were incubated at room temperature for 15 min. After pre-incubation, 10 µL of reaction mix was added and incubated at 37 °C for 60 min. A 200 µL quantity of NO detection reagent was added, the detection reaction was run at 37 °C for 60 min, and absorbance was determined at a wavelength of 540 nm using an Elisa plate reader (Varioskan Flash, ThermoFisher Scientific, Vantaa, Finland). The average of three readings was used to calculate the NOS percentage inhibition using the following formula: % Inhibition=1−ΔOD Test Compd/ΔOD No Inhibitor ×100%
The IC50 values and standard deviation values were determined from nonlinear regression dose–response curve and compared with the results in GraphPad prism.

`CC1=[N+]([O-])C(c2ccccc2)Nc2c(I)cc(Br)cc21` (centres unmarked) [Compound 3i] gave an IC50 [1] of 61.26 ± 0.005 µM and an IC50 [2] of 29.08 ± 0.004 µM.

Source: paper PMC10669220, “In Vitro α-Glucosidase and α-Amylase Inhibition, Cytotoxicity and Free Radical Scavenging Profiling of the 6-Halogeno and Mixed 6,8-Dihalogenated 2-Aryl-4-methyl-1,2-dihydroquinazoline 3-Oxides” (Antioxidants, 2023)
